Experimental findings from US20250230161A1, “POLYCYCLIC CAP-DEPENDENT ENDONUCLEASE INHIBITORS FOR TREATING OR PREVENTING INFLUENZA” (Merck Sharp & Dohme LLC, priority 2021, published 2025) are described below.

The experiment has as its system FLU A (PR/8/34). The experiment is described as follows: Flu A Neuraminidase Antiviral Assay. In kind it is cell-based. The following applies: MDCK cells infected with FLU A (PR/8/34), 48 h incubation, NA activity by MUNANA fluorescence.
Regarding `O=C1c2c(O)c(=O)ccn2N2CN1CCCCC2c1ccccc1` (centres unmarked) [Compound 1], the EC50 was found to be 143 nM. This counts as sub-micromolar.
To `O=C1c2c(O)c(=O)ccn2N2CN1CCCCC2c1ccccc1Cl` (centres unmarked) [Compound 2] belongs 72 nM.
Compound `O=C1c2c(O)c(=O)ccn2N2CN1CCCCC2c1cccc(Cl)c1` (centres unmarked) [Compound 3] had an EC50 of 133 nM.
As for `O=C1c2c(O)c(=O)ccn2N2CN1CCCCC2c1ccc(Cl)cc1` (centres unmarked) [Compound 4], the midpoint of the response, the EC50, lay at 1690 nM.
To `O=C1c2c(O)c(=O)ccn2N2CN1CCCCC2c1ccccc1Br` (centres unmarked) [Compound 5] belongs 92 nM; to `O=C1c2c(O)c(=O)ccn2N2CN1CC(F)CCC2c1ccccc1` (centres unmarked) [Compound 9], 578 nM; to `O=C1c2c(O)c(=O)ccn2N2CN1CCCCC2c1cccc2ccccc12` (centres unmarked) [Compound 10], 577 nM.
As for `O=C1c2c(O)c(=O)ccn2N2CN1CCCCC2c1cccc2ccc(F)cc12` (centres unmarked) [Compound 11], the figure is 966 nM; as for `O=C1c2c(O)c(=O)ccn2N2CN1CCCCC2c1ccc2ccccc2c1` (centres unmarked) [Compound 12], 6290 nM.
With `CC1(c2ccccc2)CCCCN2CN1n1ccc(=O)c(O)c1C2=O` (centres unmarked) [Compound 13], the EC50 was 310 nM. This EC50 lies about 20-fold lower than the previous one.
As to `O=C1c2c(O)c(=O)ccn2N2CN1CCCCCC2c1ccccc1` (centres unmarked) [Compound 14], the EC50 was 927 nM.
To `CC1CCCC(c2ccccc2)N2CN1C(=O)c1c(O)c(=O)ccn12` (centres unmarked) [Compound 15] belongs 460 nM.
To `O=C1c2c(O)c(=O)ccn2N2CN1C(C1CC1)CCCC2c1ccccc1` (centres unmarked) [Compound 16] belongs 164 nM.
To `O=C1c2c(O)c(=O)ccn2N2CN1C/C=C\CC2c1ccccc1` (centres unmarked) [Compound 17] belongs 193 nM; to `O=C1c2c(O)c(=O)ccn2N2CN1C/C=C\CC2c1cccc2ccc(F)cc12` (centres unmarked) [Compound 18], 1460 nM; to `CC1/C=C\CC(c2ccccc2)N2CN1C(=O)c1c(O)c(=O)ccn12` (centres unmarked) [Compound 19], 229 nM.
`O=C1c2c(O)c(=O)ccn2N2CN1C(C1CC1)/C=C\CC2c1ccccc1` (centres unmarked) [Compound 20] came in with an EC50 of 171 nM.
As for `CC1N2CCCCC(c3ccccc3)N1n1ccc(=O)c(O)c1C2=O` (centres unmarked) [Compound 21], the figure is 98 nM; as for `CC1N2CCCCCC(c3ccccc3)N1n1ccc(=O)c(O)c1C2=O` (centres unmarked) [Compound 22], 228 nM; as for `CC1CCN2CN(C(c3ccccc3)C1)n1ccc(=O)c(O)c1C2=O` (centres unmarked) [Compound 23], 4410 nM.

One may read the EC50 as the concentration at which the effect is half-maximal.
